Values after ≈ are worked out from the molar mass of the structure shown. Peptide text beside a SMILES is read from it.
Legend:
Format in all cases: cell-based
[1] = tested on: Acinetobacter baumannii ATCC 19606 (non-MDR); conditions: ATCC 19606
Description: (§1) Each peptide was formulated in PBS buffer prior to testing. Peptides of SEQ ID NO:5 and SEQ ID NO:8 were brought up in 100% DMSO with 0.002% polysorbate-80 at 1.28 mg/mL (40× the highest final test concentration of 32 mcg/mL). Final test concentration of DMSO was 2.5% in the assay at the first dilution for those two compounds.
(§2) Mueller Hinton II broth (MHB II; BD; Lot Nos. 6258541 and 7143896) was used for MIC testing of aerobic organisms. 0.002% polysorbate 80 (P80) was added to the test medium.
(§3) MIC values were determined using a broth microdilution procedure described by CLSI (1, 3). Automated liquid handlers (Multidrop 384, Labsystems, Helsinki, Finland; Biomek 2000 and Biomek FX, Beckman Coulter, Fullerton CA) were used to conduct serial dilutions and liquid transfers.
(§4) To prepare the drug mother plates, which would provide the serial peptide dilutions for the replicate daughter plates, the wells of columns 2-12 of standard 96-well microdilution plates (Costar 3795) were filled with 150 μl of the designated diluent for each row of peptide. The test articles and comparator compounds (300 μl at 40× the highest concentration to be tested) were dispensed into the appropriate wells in column 1. The Biomek 2000 was then used to make 2-fold serial dilutions in the mother plates from column 1 through column 11. The wells of Column 12 contained no drug and served as the organism growth control wells for the assay.
(§5) The daughter plates were loaded with 185 μL per well of MHB II using the Multidrop 384. The daughter plates were completed on the Biomek FX instrument which transferred 5 uL of peptide solution from each well of a mother plate to the corresponding well of each daughter plate in a single step. A standardized inoculum of each test organism was prepared per CLSI methods. The inoculum for each organism was dispensed into sterile reservoirs divided by length (Beckman Coulter), and the Biomek 2000 was used to inoculate the plates. Daughter plates were placed on the Biomek 2000 work surface in reverse orientation so that inoculation took place from low to high drug concentration. The plates were then inoculated with 10 μL of the inoculum resulting in a final cell density of approximately 5×10^5 CFU/mL, per well.
(§6) Plates were stacked 3-4 high, covered with a lid on the top plate, placed in plastic bags, and incubated at 35° C. for 16 to 20 hrs. Following incubation, the microplates were removed from the incubator and viewed from the bottom using a plate viewer. […] The MIC was read and recorded as the lowest concentration of peptide that inhibited visible growth of the organism.

[2] = tested on: Enterococcus faecalis ATCC 29212 (VSE; QC); conditions: ATCC 29212
Description: as §1, §2, §3, §4, §5, §6

[3] = tested on: Enterococcus faecalis ATCC 700802 (V583 VRE); conditions: ATCC 700802
Description: as §1, §2, §3, §4, §5, §6

[4] = tested on: Enterococcus faecium ATCC 51559 (VRE); conditions: ATCC 51559
Description: as §1, §2, §3, §4, §5, §6

[5] = tested on: Escherichia coli ATCC 25922 (QC); conditions: ATCC 25922
Description: as §1, §2, §3, §4, §5, §6

[6] = tested on: Escherichia coli ATCC 35218 (ESBL); conditions: ATCC 35218
Description: as §1, §2, §3, §4, §5, §6

[7] = tested on: Escherichia coli ATCC BAA-2471 (NDM-1); conditions: ATCC BAA-2471
Description: as §1, §2, §3, §4, §5, §6

[8] = tested on: Klebsiella pneumoniae ATCC BAA-1705 (KPC); conditions: ATCC BAA-1705
Description: as §1, §2, §3, §4, §5, §6

[9] = tested on: Pseudomonas aeruginosa ATCC 27853 (non-MDR; QC); conditions: ATCC 27853
Description: as §1, §2, §3, §4, §5, §6

[10] = tested on: Pseudomonas aeruginosa ATCC BAA-2109 (MDR); conditions: ATCC BAA-2109
Description: as §1, §2, §3, §4, §5, §6

[11] = tested on: Staphylococcus aureus ATCC 29213 (MSSA; QC); conditions: ATCC 29213
Description: as §1, §2, §3, §4, §5, §6

[12] = tested on: Staphylococcus aureus ATCC 43300 (MRSA); conditions: ATCC 43300
Description: as §1, §2, §3, §4, §5, §6

[13] = tested on: Staphylococcus aureus NRS382 (USA100; HA-MRSA); conditions: USA100
Description: as §1, §2, §3, §4, §5, §6

[14] = tested on: Streptococcus pneumoniae ATCC 49619 (QC); conditions: ATCC 49619
Description: as §1, §2, §3, §4, §5, §6

[15] = tested on: Streptococcus pyogenes ATCC 49399; conditions: ATCC 49399
Description: as §1, §2, §3, §4, §5, §6

[16] = tested on: Acinetobacter baumannii ATCC BAA-1797 (MDR); conditions: ATCC BAA-1797
Description: as §1, §2, §3, §4, §5, §6

SMILES | MIC [1] [µg/mL] | MIC [2] [µg/mL] | MIC [3] [µg/mL] | MIC [4] [µg/mL] | MIC [5] [µg/mL] | MIC [6] [µg/mL] | MIC [7] [µg/mL] | MIC [8] [µg/mL] | MIC [9] [µg/mL] | MIC [10] [µg/mL] | MIC [11] [µg/mL] | MIC [12] [µg/mL] | MIC [13] [µg/mL] | MIC [14] [µg/mL] | MIC [15] [µg/mL] | MIC [16] [µg/mL]
CC[C@H](C)[C@H](N)C(=O)N[C@@H](CCCNC(=N)N)C(=O)N[C@@H](CCCNC(=N)N)C(=O)N[C@@H](CCCNC(=N)N)C(=O)N[C@H](C(=O)N[C@@H](CCCNC(=N)N)C(=O)N[C@@H](CCCNC(=N)N)C(=O)N[C@H](C(=O)N[C@@H](CCCNC(=N)N)C(=O)N[C@@H](CCCNC(=N)N)C(=O)N[C@@H](CCCNC(=N)N)C(=O)N[C@H](C(=O)N[C@@H](CCCNC(=N)N)C(=O)N[C@@H](CCCNC(=N)N)C(=O)N[C@H](C(=O)N[C@@H](CCCNC(=N)N)C(=O)N[C@@H](CCCNC(=N)N)C(=O)N[C@@H](CCCNC(=N)N)C(=O)N[C@H](C(=O)N[C@@H](CCCNC(=N)N)C(=O)N[C@@H](CCCNC(=N)N)C(=O)O)[C@@H](C)CC)[C@@H](C)CC)[C@@H](C)CC)[C@@H](C)CC)[C@@H](C)CC [SEQ ID NO: 3] (H-IRRRIRRIRRRIRRIRRRIRR-OH; N-terminus and C-terminus assumed) | 8 (≈ 2.63 µM) | 32 (≈ 10.5 µM) | >32 | 4 (≈ 1.32 µM) | 4 (≈ 1.32 µM) | 4 (≈ 1.32 µM) | 4 (≈ 1.32 µM) | 32 (≈ 10.5 µM) | 4 (≈ 1.32 µM) | 2 (≈ 0.658 µM) | 8 (≈ 2.63 µM) | 8 (≈ 2.63 µM) | 8 (≈ 2.63 µM) | 32 (≈ 10.5 µM) | 16 (≈ 5.26 µM) | 
CC[C@H](C)[C@H](N)C(=O)N[C@@H](CCCNC(=N)N)C(=O)N[C@@H](CCCNC(=N)N)C(=O)N[C@@H](CCCNC(=N)N)C(=O)N[C@@H](CCCNC(=N)N)C(=O)N[C@@H](CCCNC(=N)N)C(=O)N[C@@H](CCCNC(=N)N)C(=O)N[C@H](C(=O)N[C@@H](CCCNC(=N)N)C(=O)N[C@@H](CCCNC(=N)N)C(=O)N[C@@H](CCCNC(=N)N)C(=O)N[C@@H](CCCNC(=N)N)C(=O)N[C@@H](CCCNC(=N)N)C(=O)N[C@@H](CCCNC(=N)N)C(=O)O)[C@@H](C)CC [SEQ ID NO: 2] (H-IRRRRRRIRRRRRR-OH; N-terminus and C-terminus assumed) | 32 (≈ 15.1 µM) | >32 | >32 | 16 (≈ 7.55 µM) | 16 (≈ 7.55 µM) | 16 (≈ 7.55 µM) | 32 (≈ 15.1 µM) | >32 | >32 | 8 (≈ 3.78 µM) | 16 (≈ 7.55 µM) | 16 (≈ 7.55 µM) | 8 (≈ 3.78 µM) | >32 | 32 (≈ 15.1 µM) | 
CC[C@H](C)[C@H](N)C(=O)N[C@@H](CCCNC(=N)N)C(=O)N[C@@H](CCCNC(=N)N)C(=O)N[C@H](C(=O)N[C@H](C(=O)N[C@@H](CCCNC(=N)N)C(=O)N[C@@H](CCCNC(=N)N)C(=O)N[C@H](C(=O)N[C@@H](CCCNC(=N)N)C(=O)N[C@@H](CCCNC(=N)N)C(=O)N[C@H](C(=O)N[C@H](C(=O)N[C@@H](CCCNC(=N)N)C(=O)N[C@@H](CCCNC(=N)N)C(=O)N[C@H](C(=O)N[C@@H](CCCNC(=N)N)C(=O)N[C@@H](CCCNC(=N)N)C(=O)N[C@H](C(=O)N[C@H](C(=O)N[C@@H](CCCNC(=N)N)C(=O)N[C@@H](CCCNC(=N)N)C(=O)O)[C@@H](C)CC)[C@@H](C)CC)[C@@H](C)CC)[C@@H](C)CC)[C@@H](C)CC)[C@@H](C)CC)[C@@H](C)CC)[C@@H](C)CC [SEQ ID NO: 4] (H-IRRIIRRIRRIIRRIRRIIRR-OH; N-terminus and C-terminus assumed) | 8 (≈ 2.75 µM) | 8 (≈ 2.75 µM) | 8 (≈ 2.75 µM) | 4 (≈ 1.37 µM) | 4 (≈ 1.37 µM) | 8 (≈ 2.75 µM) | 4 (≈ 1.37 µM) | 32 (≈ 11 µM) | 8 (≈ 2.75 µM) | 4 (≈ 1.37 µM) | 8 (≈ 2.75 µM) | 4 (≈ 1.37 µM) | 4 (≈ 1.37 µM) | 16 (≈ 5.5 µM) | 16 (≈ 5.5 µM) | 8 (≈ 2.75 µM)

More lines, now with the values ahead:

MIC [1] [µg/mL] | MIC [2] [µg/mL] | MIC [3] [µg/mL] | MIC [4] [µg/mL] | MIC [5] [µg/mL] | MIC [6] [µg/mL] | MIC [7] [µg/mL] | MIC [8] [µg/mL] | MIC [9] [µg/mL] | MIC [10] [µg/mL] | MIC [11] [µg/mL] | MIC [12] [µg/mL] | MIC [13] [µg/mL] | MIC [14] [µg/mL] | MIC [15] [µg/mL] | MIC [16] [µg/mL] | SMILES
16 (≈ 5.1 µM) | 16 (≈ 5.1 µM) | 16 (≈ 5.1 µM) | 8 (≈ 2.55 µM) | 16 (≈ 5.1 µM) | 16 (≈ 5.1 µM) | 32 (≈ 10.2 µM) | >32 | >32 | 16 (≈ 5.1 µM) | 16 (≈ 5.1 µM) | 8 (≈ 2.55 µM) | 8 (≈ 2.55 µM) | 32 (≈ 10.2 µM) | 32 (≈ 10.2 µM) |  | CC(C)[C@H](N)C(=O)N[C@@H](Cc1c[nH]c2ccccc12)C(=O)N[C@@H](CCCNC(=N)N)C(=O)N[C@@H](Cc1c[nH]c2ccccc12)C(=O)N[C@H](C(=O)N[C@@H](CCCNC(=N)N)C(=O)N[C@@H](CCCNC(=N)N)C(=O)N[C@H](C(=O)N[C@@H](Cc1c[nH]c2ccccc12)C(=O)N[C@@H](CCCNC(=N)N)C(=O)N[C@@H](Cc1c[nH]c2ccccc12)C(=O)N[C@H](C(=O)N[C@@H](CCCNC(=N)N)C(=O)N[C@@H](CCCNC(=N)N)C(=O)N[C@H](C(=O)N[C@@H](Cc1c[nH]c2ccccc12)C(=O)N[C@@H](CCCNC(=N)N)C(=O)N[C@@H](Cc1c[nH]c2ccccc12)C(=O)N[C@H](C(=O)N[C@@H](CCCNC(=N)N)C(=O)N[C@@H](CCCNC(=N)N)C(=O)O)C(C)C)C(C)C)C(C)C)C(C)C)C(C)C [SEQ ID NO: 5] (H-VWRWVRRVWRWVRRVWRWVRR-OH; N-terminus and C-terminus assumed)
0.5 (≈ 0.238 µM) | 2 (≈ 0.954 µM) | 4 (≈ 1.91 µM) | 0.5 (≈ 0.238 µM) | 2 (≈ 0.954 µM) | 1 (≈ 0.477 µM) | 1 (≈ 0.477 µM) | 4 (≈ 1.91 µM) | 16 (≈ 7.63 µM) | 8 (≈ 3.82 µM) | 0.5 (≈ 0.238 µM) | 0.5 (≈ 0.238 µM) | 0.5 (≈ 0.238 µM) | 8 (≈ 3.82 µM) | 4 (≈ 1.91 µM) | 0.5 (≈ 0.238 µM) | CC(C)[C@H](N)C(=O)N[C@@H](Cc1c[nH]c2ccccc12)C(=O)N[C@@H](CCCNC(=N)N)C(=O)N[C@@H](Cc1c[nH]c2ccccc12)C(=O)N[C@H](C(=O)N[C@@H](CCCNC(=N)N)C(=O)N[C@@H](CCCNC(=N)N)C(=O)N[C@H](C(=O)N[C@@H](Cc1c[nH]c2ccccc12)C(=O)N[C@@H](CCCNC(=N)N)C(=O)N[C@@H](Cc1c[nH]c2ccccc12)C(=O)N[C@H](C(=O)N[C@@H](CCCNC(=N)N)C(=O)N[C@@H](CCCNC(=N)N)C(=O)O)C(C)C)C(C)C)C(C)C [SEQ ID NO: 6] (H-VWRWVRRVWRWVRR-OH; N-terminus and C-terminus assumed)

— patent publication US20240115654A1, “INTRAVENOUS ADMINISTRATION OF ENGINEERED ANTIMICROBIAL AMPHIPHILIC PEPTIDES” (priority 2021, published 2024)
